{"source": "patent US20030211075A1", "about": "(priority 2001, published 2003)", "key": {"[1]": {"tested_on": "C1300 mouse neuroblastoma", "assay": "In vivo tumor thrombosis, C1300", "excerpt": "Tumor test systems were of four types: i) 3LL mouse lung carcinoma growing subcutaneously in C57BL/6 mice; ii) C1300 mouse neuroblastoma growing subcutaneously in BALB/c nu/nu mice; iii) HT29 human colorectal carcinoma growing subcutaneously in BALB/c nu/nu mice; and iv) C1300 Muγ mouse neuroblastoma growing subcutaneously in BALB/c nu/nu mice. The C1300 Muγ tumor is an interferon-y secreting transfectant derived from the C 1300 tumor (Watanabe et al., 1989).\nTo establish tumors, 10^6 to 1.5×10^7 tumor cells were injected subcutaneously into the right anterior flank of the mice. When tumors had grown to various sizes, mice were randomly assigned to different study groups. […] Fab′, or bispecific antibody. Other mice received equivalent quantities IgG, Fab′ or bispecific antibody alone. The injections were performed slowly into one of the tail veins over approximately 45 seconds, usually followed by 200 μl of saline.\nTwenty-four hours after being injected with tTF or immunoglobulin-tTF conjugates, the mice were anesthetized with metophane and were exsanguinated by perfusion with heparinized saline. Tumors and normal tissues were excised and immediately fixed in 3% (v/v) formalin. Paraffin sections were cut and stained with hematoxylin and eosin. Blood vessels having open lumens containing erythrocytes and blood vessels containing thrombi were counted. […]"}, "[2]": {"assay": "Clinical signs of toxicity and histology of normal organs in treated tumor-bearing mice", "assay_type": "in vivo, mouse", "conditions": "for Symptoms: tTF alone (4 μg i.v.), no endotoxin", "protocol": "Mice were closely observed after treatment for clinical signs of toxicity and clinical status was documented at defined time points (5 minutes, 10 minutes, 15 minutes, 30 minutes. 1 hour. 2 hours, 24 hours, 48 hours, 72 hours). Blood samples were taken from the tail vein at 1 hour, 2 hours and 24 hours to measure TNFα blood levels. Three days after treatment, the mice were anesthetized, blood samples were taken from the vena cava for coagulation tests, and an autopsy was performed to document any changes in gross pathology. Tumors, lymph node metastases and the major normal organs (heart, lung, brain, liver, kidney, colon, spleen, pancreas) were harvested and prepared for histological analysis.\nTissue samples harvested at the time of autopsy were fixed in 3% NBF (normal buffered formalin) and embedded in paraffin wax. Tissue blocs were cut, dewaxed and stained with hematoxilin and eosin (H&E). Tissue sections were analyzed on a light microscope by two independent investigators and histological findings were documented. Tumor sections with necrotic areas were scanned with a GS-700 imaging densitometer (Biorad, Hercules, Calif.) and areas of necrosis were calculated as % of total section area. Statistical Analysis was performed using SPSS software (SPSS Science Software, Erkrath, Germany) applying the Mann-Whitney-U-test for ungrouped data."}, "[3]": {"tested_on": "L540 human Hodgkin's tumors", "assay": "Anti-VCAM-1•tTF coaguligand in L540 tumor-bearing mice", "assay_type": "in vivo, mouse", "protocol": "Before coaguligand injection, tumors were viable, having a uniform morphology lacking regions of necrosis. […] Within four hours of coaguligand injection, 40-70% of blood vessels were thrombosed, despite the initial staining of only 20-30% of tumor blood vessels. The thrombosed vessels contained occlusive platelet aggregates, packed erythrocytes and fibrin. In several regions, the blood vessels had ruptured, spilling erythrocytes into the tumor interstitium.\nThe drug was administered i.v. 3 times at intervals of 4 days."}, "[4]": {"tested_on": "HT29 human colorectal carcinoma", "assay": "HT29 xenograft, tumor growth and necrosis after tTF constructs and Factor VIIa", "assay_type": "in vivo, mouse"}}}
{"substance": "tTF: extracellular domain of the mature Tissue Factor protein (amino acid 1-219), recombinant truncated human Tissue Factor", "values": [{"measurement": "thrombosis of tumor vessels", "setting": "[1]; large tumors (>1000 mm^3), 24 hours after injection", "value": "virtually all vessels were thrombosed"}, {"measurement": "effect on tumor vessels", "setting": "[1]; small (<500 mm^3) tumors", "value": "largely unaffected"}, {"measurement": "histology of normal organs", "setting": "[2]; light microscopy, three days after treatment", "value": "No histological abnormalities were seen"}, {"measurement": "Symptoms", "setting": "[2]; listed as TTF", "value": "None"}, {"measurement": "Symptoms", "setting": "[2]; listed as endotoxin-free tTF", "value": "no clinical signs of toxicity"}, {"measurement": "control reagents that caused thrombosis", "setting": "[3]; equivalent quantities", "value": "None"}, {"measurement": "effect on tumor growth", "setting": "[3]; i.v. 3 times at intervals of 4 days", "value": "did not affect tumor growth"}, {"measurement": "duration of discontinued growth after treatment", "setting": "[4]; large (1200 mm^3) tumors", "value": "about 7 days"}, {"measurement": "average area of necrosis in tumor sections", "setting": "[4]; mouse, in vivo, iv", "value": "some necrosis"}]}
